Ki and peak hyperactivity data for 7 compounds are collected here from patent publication US5218123A, “Didehydrotryptophan derivatives and pharmaceutical use thereof” (Warner-Lambert Company, priority 1992, dated 1993).

For one experiment, the target named is T1, Central CCK-B Receptors (Mus musculus, UniProt P56481).
T1 construct: from tissue; host or cells: cerebral cortex membranes of male CFLP mice (30 to 40 g)
T1 sequence (P56481 1-453): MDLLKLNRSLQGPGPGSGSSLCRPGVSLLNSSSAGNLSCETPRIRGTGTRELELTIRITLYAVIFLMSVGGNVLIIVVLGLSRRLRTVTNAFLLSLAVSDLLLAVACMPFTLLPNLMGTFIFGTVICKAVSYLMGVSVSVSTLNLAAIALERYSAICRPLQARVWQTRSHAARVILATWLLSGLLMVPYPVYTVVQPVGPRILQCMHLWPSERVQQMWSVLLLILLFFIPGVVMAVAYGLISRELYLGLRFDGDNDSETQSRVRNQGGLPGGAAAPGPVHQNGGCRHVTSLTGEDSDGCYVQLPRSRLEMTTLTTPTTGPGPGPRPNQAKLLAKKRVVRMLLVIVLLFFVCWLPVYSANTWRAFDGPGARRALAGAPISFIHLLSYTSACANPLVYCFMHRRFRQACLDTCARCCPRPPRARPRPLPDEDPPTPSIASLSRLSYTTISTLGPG
The experiment in a line: Binding to central CCK-B receptors: displacement of tritiated-pentagastrin from cerebral cortical membranes. Set-up: species or system mouse (male CFLP mice). The settings on record: tritiated-pentagastrin 2 nM, 23° C., pH 7.2. The method, then: The biological activity of compounds of the present invention was evaluated employing an initial screening test which rapidly and accurately measured the binding of the tested compound to known CCK receptor sites. […] (See Hays, et al, Neuropeptides 1:53-62, 1980; and Satuer et al, Science 208:1155-1156, 1980.)
In this screening test, the cerebral cortices taken from male CFLP mice weighing between 30 to 40 g were dissected on ice, weighed, and homogenized in 10 volumes of 50 mM Tris-HCl buffer (pH 7.4 at 0°-4° C.). The resulting suspension was centrifuged, the supernate was discarded, and the pellet was washed by resuspension in Tris-HCl buffer followed by recentrifugation. The final pellet was resuspended in 20 volumes of […] buffer (pH 7.2 at 23° C.) containing 130 mM NaCl, […], […], […], 5 mg/mL bovine albumin, and bacitracin (0.25 mg/mL).
In saturation studies, cerebral cortical membranes were incubated at 23° C. for 120 minutes in a final volume of 500 μL of Hepes incubation buffer (pH 7.2) together with 0.2-20 nM tritiated-pentagastrin (Amersham International, England).
In the displacement experiments, membranes were incubated with a single concentration (2 nM) of ligand, together with increasing concentrations ([…] to 10^-4 M) of competitive test compound. In each case, the nonspecific binding was defined as that persisting in the presence of the unlabeled octapeptide CCK26-33 (10^-6 M).
Following incubation, radioactivity bound to membranes was separated from that free in solution by rapid filtration through Whatman GF/B filters and washed three times with 4 mL of ice cold Tris-HCl buffer. Filters from samples incubated with tritiated pentagastrin were placed in polyethylene vials with 4 mL of scintillation cocktail, and the radioactivity was estimated by liquid scintillation spectrometry (efficiency 47% to 52%).
The specific binding to CCK receptor sites was defined as the total bound tritiated-pentagastrin minus the amount of tritiated-pentagastrin bound in the presence of 10^-6 octapeptide, CCK26-33.
Saturation curves for specific tritiated-pentagastrin binding to mouse cortical membranes were analyzed by the methods of Scatchard (Ann. New York Acad. Sci. 51:660-672, 1949), and Hill (J. Physiol. 40:IV-VIII, 1910), to provide estimates for the maximum number of binding sites (Bmax) and the equilibrium dissociation constant (Ka).
In displacement experiments, inhibition curves were analyzed by either logit-log plots or the iterative curve fitting computer program ALLFIT (DeLean, Munson, and Redbard, 1978) to provide estimates of the IC50 and nH (apparent Hill coefficient values). (IC50 values were defined as the concentration of test compound required to produce 50% inhibition of specific binding.)
The inhibition constant (Ki) of the test compound was then calculated according to the Cheng Prusoff equation: [formula] where [L]is the concentration of radiolabel and Ka is the equilibrium dissociation constant.
^a Binding affinity protocol Horwell, et al, J. Med. Chem. 34:404,

The subject of experiment [1] is hyperactivity caused by the injection of amphetamine into the nucleus accumbens of the rat. The experiment in a line: Reduction of hyperactivity caused by intra-accumbens amphetamine (locomotor activity, antipsychotic test). In kind it is in vivo, rat (male Sprague Dawley (CD) Bradford strain). The following applies: bilateral injection of amphetamine (20 μg) into the nucleus accumbens, 20 to 40 minutes after injection. As to the method: The compounds of the instant invention are useful as antipsychotic agents. The compounds are tested for their ability to reduce the effects of intra-accumbens amphetamine in the rat as described hereinafter.
Male Sprague Dawley (CD) Bradford strain rats are used. The rats are housed in groups of five at a temperature of 21°±2° C. on a 12-hour light-dark cycle of lights-on between 07 hours 00 minutes and 20 hours 00 minutes. Rats are fed CRM diet (Labsure) and allowed water ad libitum.
Rats are anesthetized with chloral hydrate (400 mg/kg^-1 SC) and placed in a Kopf stereotaxic frame. Chronically indwelling guide cannulae (constructed of stainless steel tubing 0.65 mm diameter held bilaterally on Parspex holders) are implanted using standard stereotaxic techniques to terminate 3.5 mm above the center of the nucleus accumbens (Ant. 9.4, Vert. 0.0, Lat. 1.6) or 5.0 mm above the central nucleus of the amygdala (Ant. 5.8, Vert. -1.8, lat. ±4.5) (atlas of De Groot, 1959). The guides are kept patent during a 14 day recovery period using stainless steel stylets, 0.3 mm diameter, which extend 0.5 mm beyond the guide tips.
Rats are manually restrained and the stylets removed. […]
The abilities of the compounds (20) and (20A) to inhibit the hyperactivity caused by the injection of amphetamine into the nucleus accumbens of the rat is measured. […]

At Central CCK-B Receptors, `O=C(N/C(=C\c1c[nH]c2ccccc12)C(=O)NCCc1ccccn1)OC1C2CC3CC(C2)CC1C3` (stereo not shown) [Example 3, Tricyclo[3.3.1.1^3,7]dec-2-yl (Z)-[1-(1H-indol-3-ylmethylene) -2-oxo-2-[[2-(2-pyridinyl)ethyl]amino]ethyl]carbamate] displayed a Ki of 507 nM. The compound `O=C(O)C[C@H](Cc1ccccc1)NC(=O)/C(=C/c1c[nH]c2ccccc12)NC(=O)OC1C2CC3CC(C2)CC1C3` (stereo partly drawn) [Example 2, (Z)-N-[α,β-Didehydro-N-[(tricyclo[3.3.1.1^3,7]dec-2-yloxy)carbonyl]tryptophyl]-L -3-(phenylmethyl)-β-alanine] came in with a Ki on Central CCK-B Receptors of 13 nM. On the same count and under the same terms, the result for `COC(=O)CC(=O)Nc1ccccc1CCNC(=O)/C(=C/c1c[nH]c2ccccc12)NC(=O)OC1C2CC3CC(C2)CC1C3` (stereo not shown) [4, step 2] reads 616 nM; that for `O=C(O)CC(=O)Nc1ccccc1CCNC(=O)/C(=C/c1c[nH]c2ccccc12)NC(=O)OC1C2CC3CC(C2)CC1C3` (stereo not shown) [Example 4, (Z)-3-[[2-[2-[[3-(1H-indol-3-yl)-1-oxo-2-[[(tricyclo[3.3.1.1^3,7]dec-2-yloxy)carbonyl]amino]-2-propenyl]amino]ethyl]phenyl]amino]-3-oxopropanoic acid], 209 nM; that for `O=C(O)C[C@H](Cc1ccccc1)NC(=O)C(=Cc1c[nH]c2ccccc12)NC(=O)OC1C2CC3CC(C2)CC1C3` (mixture of isomers) [Example 5, (E/Z)-N-[α,β-Didehydro-N-[(tricyclo[3.3.1.1^3,7]dec-2-yloxy)carbonyl]tryptophyl]-L-3-(phenylmethyl)-β-alanine], 0.3 nM. As to `CC(N)Cc1ccccc1` (stereo not shown) [amphetamine], the peak hyperactivity in experiment [1] was in the range of 50 to 60 counts 5 minutes^-1. Turning to `O=C(N/C(=C\c1c[nH]c2ccccc12)C(=O)NCCc1ccccc1)OC1C2CC3CC(C2)CC1C3` (stereo not shown) [Example 1, Carbamic acid, [1-(1H-indol-3-ylmethylene)-2-oxo-2-[(2-phenylethyl)amino]ethyl]-, tricyclo[3.3.1.1^3,7]dec-2-yl ester, (Z)-], at Central CCK-B Receptors, the inhibition constant Ki turned out to be 1520 nM.

One may read the Ki as a measure of affinity in units of concentration, obtained from inhibition or displacement. Low values mean tighter binding, high ones weaker binding.
